Paper PMC11345829, “Discovery of Potent Isoquinolinequinone N-Oxides to Overcome Cancer Multidrug Resistance” (Journal of Medicinal Chemistry, 2024)

Assays:
Experiment in all cases: SRB cell growth inhibition assay
NCI-H460/R = assay type: cell-based, human; settings: for selectivity ratio NSCLC: GI50 sensitive NCI-H460 / GI50 MDR NCI-H460/R; for GI50: Homo sapiens, NCI-H460, 48 h, NSCLC MDR, mean ± SEM; for GI50 / GI50 concentration range against MDR NCI-H460/R: SRB assay; for GI50 concentration range against MDR NCI-H460/R: in words
Procedure: Two distinct pairs of counterpart drug-sensitive and MDR human tumor cell lines were used, namely the non-small lung cancer (NSCLC) NCI-H460 (same cell line as in the NCI screen) and its MDR counterpart cell line NCI-[…] and the colorectal cancer DLD1 and its MDR counterpart cell line DLD1-TxR (Table 3). The screening was performed using the SRB assay, and the GI50 for each compound was determined by interpolation on the attained concentration-response curves and compared with NCI60 screening data (SI, Figures S62-S63; Table S21). Two pairs of drug-sensitive and multidrug-resistant (MDR) cell lines from human nonsmall cell lung cancer (NSCLC), NCI-H460 and NCI-[…], and colorectal cancer, DLD1 and DLD1-TxR, kindly provided by Dr M. […] The A549 cell line was maintained in Dulbecco's Modified Eagle Medium (DMEM) supplemented with 4.5 g/L Glucose with UltraGlutamine with sodium pyruvate (Lonza, Basel Stücki, Switzerland), enriched with 10% fetal bovine serum (FBS; Biowest, Nuaillé, France). […] For the sulforhodamine B (SRB) and 3D cell culture assays, the media were supplemented with 5% FBS. The remaining experiments were performed with medium supplemented with 10% FBS. […] The SRB assay was performed as previously described.[78],[79] Briefly, after fixing cells with 10% (w/v) ice-cold trichloroacetic acid (Merck Life Science), the proteins were stained with 0.4% of SRB (Merck Life Science) in acetic acid (Merck Life Science). Following washing steps in acetic acid, the bound dye was solubilized with 10 mM Tris base solution (Merck Life Science). Absorbance was measured at 510 nm in a multiplate reader (Synergy Mx, Biotek Instruments Inc., Winooski, Vermont, USA) using the Gen5 software (Biotek Instruments Inc.).

DLD1 = assay type: cell-based; settings: Homo sapiens, DLD-1, 48 h, colorectal cancer sensitive, mean ± SEM
Source text: (§1) Taking into consideration the promising results of preliminary NCI screening, nine compounds (1, 2, 3, 4, 5, 20, 23, 24, 25) were selected for further screening in two counterpart pairs of sensitive and MDR cell lines. […] Two distinct pairs of counterpart drug-sensitive and MDR human tumor cell lines were used, namely the non-small lung cancer (NSCLC) NCI-H460 (same cell line as in the NCI screen) and its MDR counterpart cell line NCI-H460/R and the colorectal cancer DLD1 and its MDR counterpart cell line DLD1-TxR (Table 3). The screening was performed using the SRB assay, and the GI50 for each compound was determined by interpolation on the attained concentration−response curves and compared with NCI60 screening data (SI, Figures S62−S63; Table S21).
(§2) Two pairs of drug-sensitive and multidrug-resistant (MDR) cell lines from human nonsmall cell lung cancer (NSCLC), NCI-H460 and NCI-H460/R, and colorectal cancer, DLD1 and DLD1-TxR, kindly provided by Dr M. Pešić (Belgrade, Serbia), were used to evaluate the growth inhibition potential of the compounds 1, 2, 3, 4, 5, 20, 23, 24, an 25.[76],[77] Additionally, growth inhibition assays were performed with compound 25 on two other NSCLC cell lines, A549 and NCI-H322, obtained from the American Type Culture Collection (ATCC) and the European Collection of Authenticated Cell Cultures, respectively. The A549 cell line was maintained in Dulbecco’s Modified Eagle Medium (DMEM) supplemented with 4.5 g/L Glucose with UltraGlutamine with sodium pyruvate (Lonza, Basel Stücki, Switzerland), enriched with 10% fetal bovine serum (FBS; Biowest, Nuaillé, France). The lung fibroblast MRC-5 cell line and the remaining NSCLC and colorectal cancer cell lines were cultured in Roswell Park Memorial Institute (RPMI) 1640 (with stable glutamine and 25 mM HEPES) medium (Biowest), supplemented with 10% fetal bovine serum. […] For the sulforhodamine B (SRB) and 3D cell culture assays, the media were supplemented with 5% FBS. The remaining experiments were performed with medium supplemented with 10% FBS.
(§3) Cells were seeded at a previously determined optimal cell concentration (5.0 × 10^4 cells/mL for NSCLC cells and the nontumorigenic MRC-5 cell line and 1.0 × 10^5 cells/mL for colorectal cancer cells) and incubated at 37 °C for 24 h. […] The SRB assay was performed as previously described.[78],[79] Briefly, after fixing cells with 10% (w/v) ice-cold trichloroacetic acid (Merck Life Science), the proteins were stained with 0.4% of SRB (Merck Life Science) in acetic acid (Merck Life Science). Following washing steps in acetic acid, the bound dye was solubilized with 10 mM Tris base solution (Merck Life Science). Absorbance was measured at 510 nm in a multiplate reader (Synergy Mx, Biotek Instruments Inc., Winooski, Vermont, USA) using the Gen5 software (Biotek Instruments Inc.).

NCI-H460 = assay type: cell-based; settings: Homo sapiens, 48 h, NSCLC sensitive, mean ± SEM
Source text: as §1, §2, §3

Compound	GI50 (NCI-H460/R)	GI50 (DLD1)	GI50 (NCI-H460)	GI50 concentration range against MDR NCI-H460/R (NCI-H460/R)	selectivity ratio NSCLC (NCI-H460/R)
COC(=O)c1c2c(c[n+]([O-])c1C)C(=O)C=CC2=O [Compound 23]	17.9 ± 3.36 µM	30.2 ± 4.08 µM	38 ± 8.32 µM		2.1
COC(=O)c1c2c(c(C)[n+]([O-])c1C)C(=O)C(NCc1ccc(F)cc1)=CC2=O [Compound 4]	2.25 ± 0.27 µM	5.94 ± 0.3 µM	2.7 ± 0.3 µM		1.2
COC(=O)c1c2c(c(C)[n+]([O-])c1C)C(=O)C(NCc1ccc(O)cc1)=CC2=O [Compound 20]	4.84 ± 0.74 µM	9.67 ± 1.15 µM	6.02 ± 0.34 µM		1.2
COc1cccc2c1C(=O)c1c(O)c3c(c(O)c1C2=O)C[C@@](O)(C(=O)CO)C[C@@H]3O[C@H]1C[C@H](N)[C@H](O)[C@H](C)O1 [doxorubicin, reference compound]	2.46 ± 0.04 µM		0.03 ± 0.01 µM		

Now those with a lower GI50 (NCI-H460/R), led by results:

GI50 (NCI-H460/R)	GI50 (DLD1)	GI50 (NCI-H460)	GI50 concentration range against MDR NCI-H460/R (NCI-H460/R)	Compound	selectivity ratio NSCLC (NCI-H460/R)
0.83 ± 0.02 µM	2.33 ± 0.38 µM	1.43 ± 0.13 µM	nanomolar range	COC(=O)c1c2c(c(C)[n+]([O-])c1C)C(=O)C=C(NCc1ccccc1)C2=O [Compound 2]	1.7
0.38 ± 0.02 µM	1.39 ± 0.17 µM	0.75 ± 0.14 µM	nanomolar range	COC(=O)c1c2c(c[n+]([O-])c1C)C(=O)C(NCc1ccccc1)=CC2=O [Compound 24]	2
0.36 ± 0.11 µM	1.22 ± 0.14 µM	0.56 ± 0.2 µM	nanomolar range	COC(=O)c1c2c(c(C)[n+]([O-])c1C)C(=O)C=C(NCc1ccc(F)cc1)C2=O [Compound 5]	1.6
0.34 ± 0.03 µM	0.61 ± 0.11 µM	0.35 ± 0.02 µM	nanomolar range	COC(=O)c1c2c(c[n+]([O-])c1C)C(=O)C=C(NCc1ccccc1)C2=O [Compound 25]	1
